Assay results published in patent publication US9957273B2, “5-substituted 7- [4-(2-pyridyl)phenylmethylamino] -3-isopropylpyrazolo4,3-D]pyrimidine derivatives, use thereof as medicaments, and pharmaceutical compositions” (USTAV EXPERIMENTALNI BOTANIKY AV CR, V.V.I., priority 2015, dated 2018).
pEC50: −log10 of the molar value. Like-named read-outs stand apart in the source and are kept apart here.

Assays:
[1] = system: CEM (human lymphoblastoid leukaemia); assay: MTT cytotoxicity assay, leukemic cell line CEM; type: cell-based; conditions: three days
Text: (§1) Cytotoxicity of the compounds is the major property determining their antileukemic efficacy in vivo. One of the parameters used, as the basis for cytotoxicity assays, is the metabolic activity of viable cells. For example, a microtiter assay, which uses (3-(4,5-dimethylthiazol-2-yl)-2,5-diphenyltetrazolium bromide (MTT), is widely used to quantitate cell proliferation and cytotoxicity. This assay is widely used in drug screening programs and in chemosensitivity testing. Because only metabolically active living cells reduce MTT to correspond purple formazan dye, these assays detect viable cells exclusively. The quantity of reduced MTT corresponds to the number of vital cells in the culture.
(§2) The compounds were assayed using the following leukemic cell lines: K562 (human chronic myelogenous leukaemia), HL60 (human promyelocytic leukaemia), CEM (human lymphoblastoid leukaemia), THP1 (human monocytic cell line), MV4; 11 (acute myelocytic leukemia). All cell lines were grown in RPMI medium supplemented with fetal bovine serum and L-glutamine and maintained at 37° C. in a humidified atmosphere with 5% CO2. For cytotoxicity assays, 2000-5000 cells were seeded into each well of 96 well plate, allowed to stabilize for at least 8 h and then tested compounds were added at various concentrations ranging from 100 to 0.01 μM in triplicates. After three days, MTT solution (5 mg/ml; Sigma, St. Louis, USA) was added to cells and medium was replaced with DMSO after five hours. The absorbance was measured at 620 nm by employing a microplate reader. MTT assays were repeated 3 times for each drug application and untreated cells were used as reference.

[2] = system: PLC/PRF/5 (liver hepatoma); assay: MTT cytotoxicity assay, solid cancer cell line PLC/PRF/5; type: cell-based; conditions: Homo sapiens, PLC-PRF-5, 72 h, three days
Description: as §2, with “following” for “following leukemic”, “G361 (malignant melanoma), MCF7 (breast adenocarcinoma), PLC/PRF/5 (liver hepatoma), PANC-1 (pancreatic carcinoma) and HCT116 (colon carcinoma).” for “K562 (human chronic myelogenous leukaemia), HL60 (human promyelocytic leukaemia), CEM (human lymphoblastoid leukaemia), THP1 (human monocytic cell line), MV4; 11 (acute myelocytic leukemia).”, “DMEM” for “RPMI”, “4000-10000” for “2000-5000”, “of a” for “of”, “16” for “8”

[3] = system: THP1 (human monocytic cell line); assay: MTT cytotoxicity assay, leukemic cell line THP1; type: cell-based; conditions: three days
Text: as §1, §2

[4] = system: G361 (malignant melanoma); assay: MTT cytotoxicity assay, solid cancer cell line G361; type: cell-based; conditions: Homo sapiens, G-361, 72 h, three days
Description: as §2, with “following” for “following leukemic”, “G361 (malignant melanoma), MCF7 (breast adenocarcinoma), PLC/PRF/5 (liver hepatoma), PANC-1 (pancreatic carcinoma) and HCT116 (colon carcinoma).” for “K562 (human chronic myelogenous leukaemia), HL60 (human promyelocytic leukaemia), CEM (human lymphoblastoid leukaemia), THP1 (human monocytic cell line), MV4; 11 (acute myelocytic leukemia).”, “DMEM” for “RPMI”, “4000-10000” for “2000-5000”, “of a” for “of”, “16” for “8”

CDK5/p35 = biological target: T1, CDK5/p35 (Homo sapiens, UniProt Q00535); assay: CDK5/p35 kinase inhibition (33P-ATP, histone H1); type: biochemical; conditions: 0.15 μM ATP
T1 construct: purchased ProQinase GmbH
T1 sequence (Q00535 whole entry): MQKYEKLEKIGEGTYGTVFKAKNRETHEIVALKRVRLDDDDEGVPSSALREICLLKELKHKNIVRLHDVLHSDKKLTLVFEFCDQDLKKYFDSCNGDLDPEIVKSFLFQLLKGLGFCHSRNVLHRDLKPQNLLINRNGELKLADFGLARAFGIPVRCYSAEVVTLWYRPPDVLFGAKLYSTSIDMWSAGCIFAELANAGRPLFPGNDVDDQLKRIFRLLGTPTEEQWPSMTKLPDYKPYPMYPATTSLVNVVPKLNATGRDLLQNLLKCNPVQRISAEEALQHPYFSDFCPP
T1 sequence (Q15078 whole entry partner): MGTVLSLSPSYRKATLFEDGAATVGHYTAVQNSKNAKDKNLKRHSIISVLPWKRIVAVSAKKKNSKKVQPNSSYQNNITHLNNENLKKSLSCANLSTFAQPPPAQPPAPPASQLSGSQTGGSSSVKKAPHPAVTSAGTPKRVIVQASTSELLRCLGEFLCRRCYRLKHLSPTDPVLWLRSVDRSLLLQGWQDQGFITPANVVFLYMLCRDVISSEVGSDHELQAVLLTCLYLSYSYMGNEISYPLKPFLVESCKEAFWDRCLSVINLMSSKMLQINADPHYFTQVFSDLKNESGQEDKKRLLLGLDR
Description: CDK2/Cyclin E kinase was produced in Sf9 insect cells via baculoviral infection and purified on a NiNTA column (Qiagen). […] CDK5/p35 was purchased from ProQinase GmbH.
(§3) The reactions were stopped by adding 5 μL of 3% aq H3PO4. Aliquots were spotted onto P-81 phosphocellulose (Whatman), washed 3× with 0.5% aq H3PO4 and finally air-dried.

[5] = system: MV4;11 (acute myelocytic leukemia); assay: MTT cytotoxicity assay, leukemic cell line MV4;11; type: cell-based; conditions: three days
Text: as §1, §2

[6] = system: HL60 (human promyelocytic leukaemia); assay: MTT cytotoxicity assay, leukemic cell line HL60; type: cell-based; conditions: three days
Text: as §1, §2

[7] = system: PANC-1 (pancreatic carcinoma); assay: MTT cytotoxicity assay, solid cancer cell line PANC-1; type: cell-based; conditions: Homo sapiens, PANC-1, 72 h, three days
Description: as §2, with “following” for “following leukemic”, “G361 (malignant melanoma), MCF7 (breast adenocarcinoma), PLC/PRF/5 (liver hepatoma), PANC-1 (pancreatic carcinoma) and HCT116 (colon carcinoma).” for “K562 (human chronic myelogenous leukaemia), HL60 (human promyelocytic leukaemia), CEM (human lymphoblastoid leukaemia), THP1 (human monocytic cell line), MV4; 11 (acute myelocytic leukemia).”, “DMEM” for “RPMI”, “4000-10000” for “2000-5000”, “of a” for “of”, “16” for “8”

HCT116 (colon carcinoma) = assay: MTT cytotoxicity assay, solid cancer cell line HCT116; type: cell-based; conditions: Homo sapiens, HCT-116, 72 h, three days
Description: as §2, with “following” for “following leukemic”, “G361 (malignant melanoma), MCF7 (breast adenocarcinoma), PLC/PRF/5 (liver hepatoma), PANC-1 (pancreatic carcinoma) and HCT116 (colon carcinoma).” for “K562 (human chronic myelogenous leukaemia), HL60 (human promyelocytic leukaemia), CEM (human lymphoblastoid leukaemia), THP1 (human monocytic cell line), MV4; 11 (acute myelocytic leukemia).”, “DMEM” for “RPMI”, “4000-10000” for “2000-5000”, “of a” for “of”, “16” for “8”

[8] = system: HUVECs (human umbilical vein endothelial cells); assay: HUVEC proliferation assay (crystal violet); type: cell-based; conditions: 72 h, read-out: Inhibition of proliferation (EC50)
Description: To verify that novel compounds have anti-vascularisation properties, we analyzed their influence on the proliferation and migration of HUVECs. HUVECs (human umbilical vein endothelial cells) were purchased from Promocell (Heidelberg, Germany) and cultured in endothelial cell growth medium (ECGM, Promocell, Heidelberg, Germany) containing 10% FCS (Biochrom, Berlin, Germany). Experiments were performed using cells at passage 3.
For proliferation assay, 1.5×10^3 HUVECs were cultured for 24 h. Afterwards, cells were either left untreated or treated with novel compounds for 72 h. Proliferation assay was performed using crystal violet as described previously (Koltermann et al. 2007, Cell Mol. Life Sci. 64:1715-1722).

[9] = system: K562 (human chronic myelogenous leukaemia); assay: MTT cytotoxicity assay, leukemic cell line K562; type: cell-based; conditions: three days
Text: as §1, §2

[10] = system: MCF7 (breast adenocarcinoma); assay: MTT cytotoxicity assay, solid cancer cell line MCF7; type: cell-based; conditions: Homo sapiens, MCF7, 72 h, three days
Description: as §2, with “following” for “following leukemic”, “G361 (malignant melanoma), MCF7 (breast adenocarcinoma), PLC/PRF/5 (liver hepatoma), PANC-1 (pancreatic carcinoma) and HCT116 (colon carcinoma).” for “K562 (human chronic myelogenous leukaemia), HL60 (human promyelocytic leukaemia), CEM (human lymphoblastoid leukaemia), THP1 (human monocytic cell line), MV4; 11 (acute myelocytic leukemia).”, “DMEM” for “RPMI”, “4000-10000” for “2000-5000”, “of a” for “of”, “16” for “8”

CDK2/Cyclin E = biological target: T2, CDK2/Cyclin E (Homo sapiens, UniProt P24941); assay: CDK2/Cyclin E kinase inhibition (33P-ATP, histone H1); type: biochemical; conditions: 15 μM ATP
T2 construct: made in house; host or cells: Sf9 insect cells (baculovirus)
Description: CDK2/Cyclin E kinase was produced in Sf9 insect cells via baculoviral infection and purified on a NiNTA column (Qiagen). The kinase reactions were assayed with 1 mg/mL histone H1 in the presence of 15 μM ATP, 0.05 μCi [γ-^33P]ATP and of the test compound in a final volume of 10 μL, all in a reaction buffer (60 mM HEPES-NaOH, pH 7.5, 3 mM MgCl2, 3 mM MnCl2, 3 μM Na-orthovanadate, 1.2 mM DTT, 2.5 μg/50 μl PEG20.000). CDK5/p35 was purchased from ProQinase GmbH. The kinase reactions were assayed with 1 mg/mL histone H1 in the presence of 0.15 μM ATP, 0.05 μCi [γ-^33P]ATP and of the test compound in a final volume of 10 μL, all in a reaction buffer (60 mM HEPES-NaOH, pH 7.5, 3 mM MgCl2, 3 mM MnCl2, 3 μM Na-orthovanadate, 1.2 mM DTT, 2.5 μg/50 μl PEG20.000).
as §3

| SMILES | IC50 ([1]; Homo sapiens, 72 h) [µM] | IC50 [2] [µM] | IC50 ([3]; Homo sapiens, THP-1, 72 h) [µM] | IC50 [4] [µM] | IC50 (CDK5/p35) [µM] | IC50 ([5]; Homo sapiens, MV4-11, 72 h) [µM] | IC50 ([6]; Homo sapiens, HL-60, 72 h) [µM] | IC50 [7] [µM] | IC50 (HCT116 (colon carcinoma)) [µM] | pEC50 [8] | IC50 ([9]; Homo sapiens, K562, 72 h) [µM] | pEC50 ([8]; Homo sapiens, HUVEC) | IC50 [10] [µM] | IC50 [1] [µM] | IC50 [3] [µM] | IC50 [9] [µM] | IC50 [5] [µM] | IC50 [6] [µM] | IC50 (CDK2/Cyclin E) [µM] |
| --- | --- | --- | --- | --- | --- | --- | --- | --- | --- | --- | --- | --- | --- | --- | --- | --- | --- | --- | --- |
| CC(C)c1n[nH]c2c(NCc3ccc(-c4ccccn4)cc3)ncnc12 [Compound 2] | 0.8 | 0.97 | 0.56 | 0.78 | 0.183 | 0.47 | 0.92 | 0.46 | 1.2 |  |  |  |  |  |  |  |  |  |  |
| CC(C)c1n[nH]c2c(NCc3ccc(-c4ccccn4)cc3)nc(NCc3ccccc3Cl)nc12 [Compound 81] |  |  |  |  |  |  |  |  |  | 5.88 |  |  |  |  |  |  |  |  |  |
| CC(C)c1[nH]nc2c(NCc3ccc(-c4ccccn4)cc3)nc(N3CCN(CCO)CC3)nc12 [Compound 17] | 0.11 | 0.73 | 0.3 | 0.24 | 0.422 | 0.37 | 0.26 | 0.34 | 0.4 |  | 0.15 | 7.02 | 0.19 |  |  |  |  |  |  |
| CC(C)c1n[nH]c2c(NCc3ccc(-c4ccccn4)cc3)nc(NCC(O)CO)nc12 (stereo not drawn) [Compound 35] | 0.18 |  | 0.26 |  | 0.017 | 0.2 | 0.17 |  |  |  | 0.24 |  |  |  |  |  |  |  |  |
| CC(C)c1n[nH]c2c(NCc3ccc(-c4ccccn4)cc3)nc(NCC(C)N3CC3)nc12 (stereo not drawn) [Compound 57] |  |  |  |  |  |  |  |  |  |  |  |  |  | 0.27 | 0.29 | 0.44 | 0.53 | 0.32 |  |
| CC(C)c1n[nH]c2c(NCc3ccc(-c4ccccn4)cc3)nc(N[C@H](C)CCO)nc12 [Compound 31] |  |  |  |  |  |  |  |  |  |  |  |  |  | 0.21 | 0.26 | 0.39 | 0.31 | 0.24 |  |
| COc1ccc(CNc2nc(NCc3ccc(-c4ccccn4)cc3)c3n[nH]c(C(C)C)c3n2)cc1 [Compound 73] | 0.89 | 3.94 | 0.67 | 2.62 | 4.42 | 0.97 | 0.78 | 0.44 | 0.99 |  | 3.95 | 5.64 | 5.3 |  |  |  |  |  |  |
| CC(C)c1n[nH]c2c(NCc3ccc(-c4ccccn4)cc3)nc(NCCCN)nc12 [Compound 41] |  |  |  |  |  |  |  |  |  |  |  |  |  | 0.43 | 0.27 | 0.47 | 0.35 | 0.56 |  |
| CC(C)c1n[nH]c2c(NCc3ccc(-c4ccccn4)cc3)nc(NCCN)nc12 [Compound 40] | 0.14 |  | 0.11 |  | 0.038 | 0.25 | 0.22 |  |  |  | 0.34 |  |  |  |  |  |  |  | 0.027 |
| CC(C)c1[nH]nc2c(NCc3ccc(-c4ccccn4)cc3)nc(NCCN3CCCC3)nc12 [Compound 55] |  |  |  |  | 0.182 |  |  |  |  |  |  |  |  |  |  |  |  |  | 0.64 |
| CCN(CC)CCNc1nc(NCc2ccc(-c3ccccn3)cc2)c2[nH]nc(C(C)C)c2n1 [Compound 50] |  |  |  |  |  |  |  |  |  |  |  |  |  | 0.11 | 0.08 | 0.18 | 0.17 | 0.14 |  |
| CC(C)c1n[nH]c2c(NCc3ccc(-c4ccccn4)cc3)nc(S(C)(=O)=O)nc12 [Compound 8, 3-Isopropyl-5-methylsulfonyl-7-[4-(2-pyridyl)benzyl]amino-1(2)H-pyrazolo[4,3-d]pyridine] |  |  |  |  |  |  |  |  |  | 6.24 |  |  |  |  |  |  |  |  |  |
| CC(C)c1[nH]nc2c(NCc3ccc(-c4ccccn4)cc3)nc(N3CCCCC3)nc12 [Compound 14] |  |  |  |  | 0.18 |  |  |  |  |  |  |  |  |  |  |  |  |  | 0.042 |
| CC(C)c1[nH]nc2c(NCc3ccc(-c4ccccn4)cc3)nc(N3CCOCC3)nc12 [Compound 9] | 0.07 | 0.21 | 0.18 | 0.25 | 0.005 | 0.36 | 0.1 | 0.3 | 0.42 |  | 0.11 | 6.87 | 0.16 |  |  |  |  |  |  |
| CSc1nc(NCc2ccc(-c3ccccn3)cc2)c2[nH]nc(C(C)C)c2n1 [Compound 5] | 0.94 | 0.7 | 0.32 | 0.24 | 0.229 | 0.6 | 0.86 | 0.65 | 1.3 |  | 0.78 | 6.63 | 0.81 |  |  |  |  |  |  |
| CC(C)c1[nH]nc2c(NCc3ccc(-c4ccccn4)cc3)nc(N[C@H]3CC[C@H](N)CC3)nc12 [Compound 67] | 0.23 | 0.29 | 0.3 | 0.36 | 0.179 | 0.19 | 0.24 | 0.5 | 0.37 |  | 0.59 | 7.16 | 0.47 |  |  |  |  |  |  |
